Experimental data from article PMC9289467, “A Novel Multifunctional 5,6-Dimethoxy-Indanone-Chalcone-Carbamate Hybrids Alleviates Cognitive Decline in Alzheimer’s Disease by Dual Inhibition of Acetylcholinesterase and Inflammation” (Frontiers in Aging Neuroscience, 2022).

What was measured:
Aβ40 oligomers = molecular target: T1, Aβ40 oligomers (Homo sapiens, UniProt P05067); test: Aβ40 self-oligomerization dot blot (A11 antibody); type: biochemical; conditions: oligomer-specific antibody A11
T1 construct: purchased Invitrogen 03-136
Experimental: The formation of Aβ40 or Aβ42 oligomers was monitored by dot blot with oligomer-specific antibody. Briefly, the resulting Aβ film was dissolved in ddH2O to form a 100 μM solution, and then the oligomerization reaction ([Kayed et al., 2003]) was initiated in absence or presence of different concentrations of AP5. An aliquot (2 μL) of each solution was dripped on a nitrocellulose membrane. The membrane was blocked with 5% non-fat milk in TBS for 1 h, incubated with the anti-β amyloid (MOAB-2, NBP2-13075SS, Novus Biologicals, Colorado, United States), anti-amyloid oligomers (A11, NBP1-97930, Novus Biologicals), or anti-amyloid fibrils (OC, NBP1-97930, Novus Biologicals) antibodies overnight at 4°C. The membrane was then incubated using HRP-conjugated secondary antibodies at room temperature for 1 h and then developed with ECL.

APPfl, CTFβ, BACE, PS1 = test: Western blot of APP processing, APP/PS1 mice; type: in vivo; conditions: cortex and hippocampus, AP5-treated vs APP/PS1 mice
Experimental: APP/PS1 mice of ages 6 months were randomly divided into vehicle (APP/PS1, n = 10) and treatment groups (AP5, n = 10), which were intragastrically administered with AP5 (40 mg/kg) once daily for consecutive 5 months. AP5 was dissolved in distilled water containing 1% sodium carboxymethyl cellulose.
Frozen hippocampus and cortex were homogenized in pre-cooling RIPA buffer (P0013B, Beyotime) supplemented with 1 mM phenylmethanesulfonyl fluoride (PMSF) and cocktail of protease and phosphatase inhibitors. […] The membranes were incubated with 5% fat-free milk blocking solution for 1 h at room temperature and then probed with primary antibodies overnight at 4°C. […] Densitometric analysis was performed using Quantity One software (Bio-Rad, Berkeley, CA, United States). […]
(1:100, BAF2655, R&D, Minneapolis, MN, USA). […] For the quantification of Aβ plaque-associated microglia and astrocyte, Iba1- and GFAP-immunopositive cells around plaques were counted. On each slide, ten plaques were randomly determined and the microglia (nuclei) in the immediate vicinity (two times the plaque diameter) of each plaque were counted. For colocalization of PSD95 and synaptophysin, images were analyzed with the puncta analyzer plugin with a minimum pixel specification of 4 in Image Jand thresholding was consistent for every image. […]

T1 sequence (P05067 672-711 limits assumed): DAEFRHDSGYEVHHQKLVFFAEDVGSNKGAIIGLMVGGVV

Q: With CCN(C)C(=O)Oc1cccc(/C=C2\Cc3cc(OC)c(OC)cc3C2=O)c1 [AP5, (E)-3-((5,6-dimethoxy-1-oxo-1,3-dihydro-2H-inden-2-ylidene)-methyl)phenylethyl(methyl)carbamate] as the compound, how does the “levels of oligomeric Aβ40” value (Aβ40 oligomers) read?
A: decreased the levels

Q: And the “expression levels of APPfl, CTFβ, BACE and presenilin 1” value (APPfl, CTFβ, BACE, PS1)?
A: no significant changes
